{"source": "patent US7071349B2", "about": "“Purification method of N-(1(S)-ethoxycarbonyl-3-phenylpropyl)-L-alanine” (Kanaka Corporation, priority 2001, dated 2006)", "assay": "Solubility of the pure product in mixed solvents of ethanol and water", "type": "physicochemical", "procedure": "One-hundred milliliters each of mixed solvents of ethanol and water in predetermined volume ratios were respectively adjusted to predetermined temperatures and each […] of N-(1(S)-ethoxycarbonyl-3-phenylpropyl)-L-alanine was no longer dissolved. After 30 minutes of standing, the supernatant was taken and the solubility (weight %) was determined according to the weight after concentration to dryness/the weight of the solution.", "data": [{"smiles": "CCOC(=O)[C@H](CCc1ccccc1)N[C@@H](C)C(=O)O", "note": "[N-(1(S)-ethoxycarbonyl-3-phenylpropyl)-L-alanine]", "values": [{"measurement": "Solubility", "setting": "ethanol/water volume ratio 0.43, 10° C.", "value": 1, "unit": "weight %"}, {"measurement": "Solubility", "setting": "ethanol/water volume ratio 0.43, 65° C.", "value": 9, "unit": "weight %"}, {"measurement": "Solubility", "setting": "ethanol/water volume ratio 1.00, 10° C.", "value": 2, "unit": "weight %"}, {"measurement": "Solubility", "setting": "ethanol/water volume ratio 1.00, 20° C.", "value": 3, "unit": "weight %"}, {"measurement": "Solubility", "setting": "ethanol/water volume ratio 1.00, 65° C.", "value": 21, "unit": "weight %"}, {"measurement": "Solubility", "setting": "ethanol/water volume ratio 2.33, 10° C.", "value": 3, "unit": "weight %"}, {"measurement": "Solubility", "setting": "ethanol/water volume ratio 2.33, 20° C.", "value": 4, "unit": "weight %"}, {"measurement": "Solubility", "setting": "ethanol/water volume ratio 2.33, 65° C.", "value": 42, "unit": "weight %"}, {"measurement": "Solubility", "setting": "ethanol/water volume ratio 4.00, 10° C.", "value": 4, "unit": "weight %"}, {"measurement": "Solubility", "setting": "ethanol/water volume ratio 4.00, 20° C.", "value": 5, "unit": "weight %"}, {"measurement": "Solubility", "setting": "ethanol/water volume ratio 4.00, 65° C.", "value": 45, "unit": "weight %"}, {"measurement": "Solubility", "setting": "ethanol/water volume ratio 5.67, 10° C.", "value": 3, "unit": "weight %"}, {"measurement": "Solubility", "setting": "ethanol/water volume ratio 5.67, 20° C.", "value": 5, "unit": "weight %"}, {"measurement": "Solubility", "setting": "ethanol/water volume ratio 5.67, 65° C.", "value": 42, "unit": "weight %"}, {"measurement": "Solubility", "setting": "ethanol/water volume ratio 15.7, 10° C.", "value": 3, "unit": "weight %"}, {"measurement": "Solubility", "setting": "ethanol/water volume ratio 15.7, 20° C.", "value": 4, "unit": "weight %"}, {"measurement": "Solubility", "setting": "ethanol/water volume ratio 15.7, 65° C.", "value": 26, "unit": "weight %"}, {"measurement": "Solubility", "setting": "ethanol/water volume ratio 249, 10° C.", "value": 2, "unit": "weight %"}, {"measurement": "Solubility", "setting": "ethanol/water volume ratio 249, 20° C.", "value": 3, "unit": "weight %"}, {"measurement": "Solubility", "setting": "ethanol/water volume ratio 249, 65° C.", "value": 17, "unit": "weight %"}]}]}
